Laboratory results as given in ChEMBL document CHEMBL1201862, “PubChem BioAssay data set” (2004).
The source made the active and inactive calls. No stated cut-off is given here; in the data, actives have a measured IC50 and inactives only a lower limit.

Target: Envelope glycoprotein gp160 (Human immunodeficiency virus 1, UniProt Q6QLK5)
Test: inhibitors of HIV fusion peptide binding, primary screen, biochemical, uHTS, fluorescence dequenching (AID 1986)

Envelope glycoprotein gp160, sequence (Q6QLK5 whole entry, the tested form may be a part): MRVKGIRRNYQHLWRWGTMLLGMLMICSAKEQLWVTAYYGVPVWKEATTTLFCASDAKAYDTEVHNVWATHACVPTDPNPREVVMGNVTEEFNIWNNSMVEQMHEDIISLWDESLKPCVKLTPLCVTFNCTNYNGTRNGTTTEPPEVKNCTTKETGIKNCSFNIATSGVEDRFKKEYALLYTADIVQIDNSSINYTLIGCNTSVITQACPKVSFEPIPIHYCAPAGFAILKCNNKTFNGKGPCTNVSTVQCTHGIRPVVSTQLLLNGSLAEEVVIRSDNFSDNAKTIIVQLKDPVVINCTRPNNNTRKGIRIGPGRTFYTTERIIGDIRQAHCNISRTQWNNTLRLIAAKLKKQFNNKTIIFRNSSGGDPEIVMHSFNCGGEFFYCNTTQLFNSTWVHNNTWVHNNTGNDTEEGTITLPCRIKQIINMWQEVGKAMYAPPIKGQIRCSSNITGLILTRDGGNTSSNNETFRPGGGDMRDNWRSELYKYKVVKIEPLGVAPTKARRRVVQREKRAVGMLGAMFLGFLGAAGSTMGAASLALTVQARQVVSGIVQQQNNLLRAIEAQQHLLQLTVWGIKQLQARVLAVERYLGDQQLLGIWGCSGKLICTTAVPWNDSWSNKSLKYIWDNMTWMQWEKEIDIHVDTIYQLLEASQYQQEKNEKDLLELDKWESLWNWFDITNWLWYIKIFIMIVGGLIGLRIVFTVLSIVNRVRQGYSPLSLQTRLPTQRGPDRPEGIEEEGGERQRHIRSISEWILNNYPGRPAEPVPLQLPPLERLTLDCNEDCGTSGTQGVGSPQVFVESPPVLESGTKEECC

| Structure (SMILES) | IC50 |
| --- | --- |
| O=C(O)c1[nH]c2ccccc2c1C(c1cc(Br)ccc1O)c1c(C(=O)O)[nH]c2ccccc12 | 4.11 µM (active) |
| COc1cc(/C=N/Nc2ccc(Cl)c(C(=O)O)c2)ccc1OC(=O)c1ccc(F)cc1 | 26.8 µM (active) |
